{"source": "patent US7268150B2", "about": "“2-cyano-4-fluoropyrrolidine derivative or its salt” (Yamanouchi Pharmaceutical Co., Ltd., priority 2002, dated 2007)", "key": {"DPP-IV": {"target": "T1, DPP-IV (Homo sapiens, UniProt P27487)", "T1 construct": "added was 5 μL of plasma collected from healthy adult volunteers; from tissue; host or cells: plasma of healthy adult volunteers", "T1 sequence (P27487 39-766 limits assumed)": "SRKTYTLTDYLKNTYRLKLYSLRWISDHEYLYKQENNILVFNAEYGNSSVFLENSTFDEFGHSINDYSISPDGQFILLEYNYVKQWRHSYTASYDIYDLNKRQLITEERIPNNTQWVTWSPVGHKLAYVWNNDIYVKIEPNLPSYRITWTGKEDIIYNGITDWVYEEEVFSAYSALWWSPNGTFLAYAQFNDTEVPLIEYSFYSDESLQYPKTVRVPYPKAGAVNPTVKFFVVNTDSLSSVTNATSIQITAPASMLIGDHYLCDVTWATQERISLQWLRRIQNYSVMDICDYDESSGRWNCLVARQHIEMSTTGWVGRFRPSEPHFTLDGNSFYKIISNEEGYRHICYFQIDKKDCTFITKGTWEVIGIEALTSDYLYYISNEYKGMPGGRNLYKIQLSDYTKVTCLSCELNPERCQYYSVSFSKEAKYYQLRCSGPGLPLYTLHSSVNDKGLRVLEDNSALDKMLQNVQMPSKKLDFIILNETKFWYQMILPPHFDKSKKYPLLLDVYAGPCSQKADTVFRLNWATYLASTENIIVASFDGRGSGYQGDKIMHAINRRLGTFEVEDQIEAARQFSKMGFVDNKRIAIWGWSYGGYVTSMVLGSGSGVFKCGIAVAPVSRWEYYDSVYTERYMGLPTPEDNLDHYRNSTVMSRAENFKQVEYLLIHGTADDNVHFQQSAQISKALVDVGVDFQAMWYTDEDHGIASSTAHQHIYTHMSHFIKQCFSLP", "experiment": "Test for determination of DPP-IV inhibiting activity (Gly-Pro-AMC cleavage by human plasma)", "type": "biochemical", "description": "(1) Test for Determination of DPP-IV Inhibiting Activity:\nThe reaction was performed in a 96-well flat-bottom microtiter plate. A varying concentration of the test compound was added to an aqueous solution comprised of 25 mM Tris-HCl, 140 mM sodium chloride, 10 mM potassium chloride, 1% RIA-grade bovine serum albumin, and 0.01 mM Gly-Pro-AMC (Bachem). To this reaction solution (95 μL/well), added was 5 μL of plasma collected from healthy adult volunteers, and incubated at room temperature for 20 minutes. […] The data of 3 wells under the same conditions were averaged.\nThe inhibition in the test group, relative to the solvent-added group was calculated, and the IC50 value thereof was obtained through logistic analysis."}, "plasma DPP-IV [1]": {"target": "T2, plasma DPP-IV (Mus musculus, UniProt P28843)", "T2 construct": "The collected blood was immediately centrifuged to isolate the plasma; from tissue; host or cells: plasma of male ICR mice (Nippon SLC)", "T2 sequence (P28843 37-760 limits assumed)": "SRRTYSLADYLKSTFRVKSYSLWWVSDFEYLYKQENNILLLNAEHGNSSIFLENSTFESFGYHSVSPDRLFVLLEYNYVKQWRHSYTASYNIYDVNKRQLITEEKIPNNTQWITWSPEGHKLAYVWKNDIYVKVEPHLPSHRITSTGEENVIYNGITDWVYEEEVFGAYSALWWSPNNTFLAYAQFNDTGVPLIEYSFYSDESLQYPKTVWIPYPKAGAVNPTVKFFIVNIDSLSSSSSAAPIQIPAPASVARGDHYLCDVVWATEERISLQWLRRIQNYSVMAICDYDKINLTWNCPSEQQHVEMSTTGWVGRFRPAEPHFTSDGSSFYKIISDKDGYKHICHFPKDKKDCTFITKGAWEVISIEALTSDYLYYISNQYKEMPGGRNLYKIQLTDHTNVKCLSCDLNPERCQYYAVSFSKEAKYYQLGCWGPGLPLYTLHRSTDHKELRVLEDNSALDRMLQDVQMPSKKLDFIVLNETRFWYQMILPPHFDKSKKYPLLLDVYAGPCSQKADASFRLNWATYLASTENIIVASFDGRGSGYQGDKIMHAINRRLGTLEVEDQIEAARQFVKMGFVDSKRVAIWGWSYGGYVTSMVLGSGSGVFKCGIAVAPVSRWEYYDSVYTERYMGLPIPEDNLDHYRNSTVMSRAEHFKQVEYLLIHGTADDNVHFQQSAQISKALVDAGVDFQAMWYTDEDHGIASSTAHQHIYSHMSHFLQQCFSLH", "experiment": "Test for DPP-IV inhibiting activity duration in mice", "type": "in vivo", "details": "po", "description": "(2) Test for DPP-IV Inhibiting Activity Duration in Mice:\n(§1) Male ICR mice (Nippon SLC) were grouped into a test group and a control group of 5 subjects each. A test compound (10 mg/kg) was dissolved in purified water, and orally administered. Purified water alone was orally administered to the mice of the control group. One half, 6, and 12 hours after the administration, the blood was collected from each mouse through the orbital venous plexus thereof. The collected blood was immediately centrifuged to isolate the plasma, and the DPP-IV activity of the plasma was measured.\n(§2) The process of plasma DPP-IV activity determination was as follows: The reaction was performed in a 96-well plate. 5 μl of the collected plasma was added to an aqueous solution (95 μl/well) comprises 25 mM Tris-HCl, 140 mM sodium chloride, 10 mM potassium chloride, 1% bovine serum albumin, and 0.01 mM Gly-Pro-AMC (Bachem), and incubated at room temperature for 20 minutes.\n(§3) The fluorescent intensity of the well, to which was added the plasma collected from the control group, was 100%. Based on it, the DPP-IV activity of the plasma collected from the test compound-administered mice was calculated, and the activity difference between the control group and the test group was obtained. This indicated the inhibition in the test group."}, "plasma DPP-IV [2]": {"target": "T3, plasma DPP-IV (Rattus norvegicus, UniProt P14740)", "T3 construct": "The collected blood was immediately centrifuged to isolate the plasma; from tissue; host or cells: plasma of male SD rats (Clea Japan)", "T3 sequence (P14740 37-767 limits assumed)": "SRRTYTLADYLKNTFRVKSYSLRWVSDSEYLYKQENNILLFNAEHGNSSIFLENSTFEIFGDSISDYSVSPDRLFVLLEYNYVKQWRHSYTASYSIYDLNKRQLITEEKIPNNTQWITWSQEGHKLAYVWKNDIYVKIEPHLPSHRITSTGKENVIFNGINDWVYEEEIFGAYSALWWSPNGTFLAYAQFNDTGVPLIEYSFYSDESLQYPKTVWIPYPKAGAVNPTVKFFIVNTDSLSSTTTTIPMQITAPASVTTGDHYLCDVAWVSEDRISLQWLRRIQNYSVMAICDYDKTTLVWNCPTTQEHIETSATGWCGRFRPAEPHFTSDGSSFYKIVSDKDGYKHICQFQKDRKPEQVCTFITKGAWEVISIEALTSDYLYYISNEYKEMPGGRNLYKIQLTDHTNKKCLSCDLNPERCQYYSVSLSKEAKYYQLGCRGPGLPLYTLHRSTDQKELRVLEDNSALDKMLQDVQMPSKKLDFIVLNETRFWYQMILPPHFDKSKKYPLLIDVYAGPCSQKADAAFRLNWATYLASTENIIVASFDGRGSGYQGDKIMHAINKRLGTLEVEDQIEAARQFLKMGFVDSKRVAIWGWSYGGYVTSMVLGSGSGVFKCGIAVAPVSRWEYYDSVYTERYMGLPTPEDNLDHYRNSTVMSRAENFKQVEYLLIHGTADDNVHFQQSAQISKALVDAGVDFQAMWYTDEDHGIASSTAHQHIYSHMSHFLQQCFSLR", "experiment": "Test for DPP-IV inhibiting activity duration in rats", "type": "in vivo", "details": "po", "description": "as §2\n(3) Test for DPP-IV Inhibiting Activity Duration in Rats:\nas §1, with “SD rats (Clea Japan)” for “ICR mice (Nippon SLC)”, “rats” for “mice”, “rat” for “mouse”, “tail vein” for “orbital venous plexus”, “measured according to the same process as in the dipeptidyl peptidase-IV (DPP-IV) inhibiting activity duration test shown in (2).” for “measured.”\nas §3, with “rats” for “mice”"}, "[3]": {"details": "plasma from healthy adult volunteers, 0.01 mM Gly-Pro-AMC, room temperature, 20 minutes, read-out: IC50 (DPP-IV inhibiting activity)"}, "[4]": {"details": "male ICR mice, 10 mg/kg orally, 12 h after administration, relative to control group, read-out: inhibition of plasma DPP-IV activity after 12 h"}, "[5]": {"details": "read-out: inhibition of plasma DPP-IV activity after 6 h, male ICR mice, 10 mg/kg orally, 6 h after administration, relative to control group"}, "[6]": {"details": "male SD rats, 10 mg/kg orally, 12 h after administration, relative to control group, read-out: inhibition of plasma DPP-IV activity after 12 h"}, "[7]": {"details": "read-out: inhibition of plasma DPP-IV activity after 6 h, male SD rats, 10 mg/kg orally, 6 h after administration, relative to control group"}, "[8]": {"details": "read-out: inhibition of plasma DPP-IV activity after 6 h"}, "[9]": {"details": "read-out: inhibition of plasma DPP-IV activity after 12 h"}}, "note": "Read-outs that look alike come from different tables or passages of the source."}
{"compound": "N#C[C@@H]1C[C@H](F)CN1C(=O)CNC1CCN(C=O)CC1", "note": "[Example 19]", "values": [{"measurement": "IC50", "setting": "DPP-IV; [3]", "result": 4.2, "unit": "nM"}, {"measurement": "inhibition at 10 mg/kg", "setting": "plasma DPP-IV [1]; [4]", "result": 61, "unit": "%"}, {"measurement": "inhibition at 10 mg/kg", "setting": "plasma DPP-IV [1]; [5]", "result": 72, "unit": "%"}]}
{"compound": "COC(C)S(=O)(=O)N1CCC(C)(NCC(=O)N2C[C@@H](F)C[C@H]2C#N)CC1", "note": "(stereo partly shown) [compound 3, reference compound]", "values": [{"measurement": "inhibition at 10 mg/kg", "setting": "plasma DPP-IV [2]; [6]", "result": 45, "unit": "%"}, {"measurement": "inhibition at 10 mg/kg", "setting": "plasma DPP-IV [2]; [7]", "result": 80, "unit": "%"}]}
{"compound": "CS(=O)(=O)N1CCC(NCC(=O)N2CCC[C@H]2C#N)CC1", "note": "[compound 1, reference compound]", "values": [{"measurement": "inhibition at 10 mg/kg", "setting": "plasma DPP-IV [2]; [6]", "result": 38, "unit": "%"}, {"measurement": "inhibition at 10 mg/kg", "setting": "plasma DPP-IV [2]; [7]", "result": 65, "unit": "%"}]}
{"compound": "CC1(NCC(=O)N2C[C@@H](F)C[C@H]2C#N)CCN(C(=O)CO)CC1", "note": "[Example 34]", "values": [{"measurement": "IC50", "setting": "DPP-IV; [3]", "result": 8.2, "unit": "nM"}, {"measurement": "inhibition at 10 mg/kg", "setting": "plasma DPP-IV [1]; [4]", "result": 79, "unit": "%"}, {"measurement": "inhibition at 10 mg/kg", "setting": "plasma DPP-IV [1]; [5]", "result": 85, "unit": "%"}, {"measurement": "inhibition at 10 mg/kg", "setting": "plasma DPP-IV [2]; [6]", "result": 94, "unit": "%"}, {"measurement": "inhibition at 10 mg/kg", "setting": "plasma DPP-IV [2]; [7]", "result": 96, "unit": "%"}]}
{"compound": "N#C[C@@H]1C[C@H](F)CN1C(=O)CNC1CCN(C(=O)N2CCOCC2)CC1", "note": "[Example 28]", "values": [{"measurement": "IC50", "setting": "DPP-IV; [3]", "result": 5.1, "unit": "nM"}]}
{"compound": "CC1(NCC(=O)N2C[C@@H](F)C[C@H]2C#N)CCN(C(=O)CF)CC1", "note": "[Example 41]", "values": [{"measurement": "IC50", "setting": "DPP-IV", "result": 5.9, "unit": "nM"}, {"measurement": "inhibition at 10 mg/kg", "setting": "plasma DPP-IV [1]; [8]", "result": 83, "unit": "%"}, {"measurement": "inhibition at 10 mg/kg", "setting": "plasma DPP-IV [1]; [9]", "result": 78, "unit": "%"}, {"measurement": "inhibition at 10 mg/kg", "setting": "plasma DPP-IV [2]; [8]", "result": 93, "unit": "%"}, {"measurement": "inhibition at 10 mg/kg", "setting": "plasma DPP-IV [2]; [9]", "result": 89, "unit": "%"}]}
{"compound": "COCC(=O)N1CCC(NCC(=O)N2CCC[C@H]2C#N)CC1", "note": "[compound 2, reference compound]", "values": [{"measurement": "inhibition at 10 mg/kg", "setting": "plasma DPP-IV [2]; [6]", "result": 55, "unit": "%"}, {"measurement": "inhibition at 10 mg/kg", "setting": "plasma DPP-IV [2]; [7]", "result": 77, "unit": "%"}]}
{"compound": "CS(=O)(=O)N1CCC(NCC(=O)N2C[C@@H](F)C[C@H]2C#N)CC1", "note": "[Example 1, (2S,4S)-4-fluoro-1-({[1-(methanesulfonyl)piperidin-4-yl]amino}acetyl)pyrrolidine-2-carbonitrile monofumarate]", "values": [{"measurement": "IC50", "setting": "DPP-IV; [3]", "result": 4.2, "unit": "nM"}, {"measurement": "inhibition at 10 mg/kg", "setting": "plasma DPP-IV [1]; [4]", "result": 59, "unit": "%"}, {"measurement": "inhibition at 10 mg/kg", "setting": "plasma DPP-IV [1]; [5]", "result": 74, "unit": "%"}]}
{"compound": "N#C[C@@H]1C[C@H](F)CN1C(=O)CNC1CCN(C(=O)CO)CC1", "note": "[Example 21]", "values": [{"measurement": "IC50", "setting": "DPP-IV; [3]", "result": 6, "unit": "nM"}, {"measurement": "inhibition at 10 mg/kg", "setting": "plasma DPP-IV [1]; [4]", "result": 71, "unit": "%"}, {"measurement": "inhibition at 10 mg/kg", "setting": "plasma DPP-IV [1]; [5]", "result": 78, "unit": "%"}]}
{"compound": "CC1(NCC(=O)N2C[C@@H](F)C[C@H]2C#N)CCN(C=O)CC1", "note": "[Example 36]", "values": [{"measurement": "IC50", "setting": "DPP-IV; [3]", "result": 7.5, "unit": "nM"}, {"measurement": "inhibition at 10 mg/kg", "setting": "plasma DPP-IV [1]; [4]", "result": 78, "unit": "%"}, {"measurement": "inhibition at 10 mg/kg", "setting": "plasma DPP-IV [1]; [5]", "result": 81, "unit": "%"}, {"measurement": "inhibition at 10 mg/kg", "setting": "plasma DPP-IV [2]; [6]", "result": 86, "unit": "%"}, {"measurement": "inhibition at 10 mg/kg", "setting": "plasma DPP-IV [2]; [7]", "result": 92, "unit": "%"}]}
